Where a name gives a salt, the structure may show the parent alone.
What was measured:
muscarinic receptor = biological target: T1, muscarinic receptor (Cavia porcellus, UniProt H0W1Z3); test: Anticholinergic action on the specimen of isolated guinea pig ileum; settings: affinity to muscarinic receptor, concentration converted from pA2 value obtained from Schild's plot, acetylcholine contraction
T1 construct: from tissue; host or cells: isolated ileum of male guinea pig
Description: A specimen (length ca. 2 cm) of male guinea pig ileum was suspended into a 10 ml-organ bath filled up with Tyrode solution. The Tyrode solution was constantly gassed with 95% O2 +5% CO2 and maintained at 37 ° C. The contraction was recorded on a pen-and-ink recorder via an isotonic transducer.
Acetylcholine was added cumulatively to the bath to obtain a consistent dose-response curve and then test compound in various concentrations was investigated on the dose-response curve of acetylcholine before and after the treatment for 5 minutes. The contraction was expressed by a ratio to the maximal contraction with acetylcholine in the absence of test compound. The affinity of test compound to the muscarinic receptor was determined by converting into the concentration from pA2 value obtained from Schild's plot.

urinary bladder = test: Bladder selectivity (salivary secretion ID30 / rhythmic bladder contraction ED30); settings: male rats, intraduodenal
Description: Male rats were given with small incision in the upper abdomen under urethane anesthesia and the test compound was administered intraduodenally. Thirty minutes later, 1 mg/kg of pilocarpine was administered subcutaneously. Saliva was collected on absorbent cotton kept in the mouth at every 30 minutes from the pilocarpine administration until 1.5 hours later. Antisecretory effects were estimated by the decrease in weight of absorbent cotton.

[1] = test system: urinary bladder (rhythmic bladder contraction); test: Inhibitory action on the rhythmic bladder contraction; type: in vivo; settings: rat, intraduodenal; vs oxybutynin hydrochloride
Description: A male rat was fixed in a supine position under the halothane anesthesia and, a catheter with rubber balloon was inserted into urinary bladder through a small incision of apex of bladder exposed by abdominal opening along the midline and the purse-string suture was performed. The catheter was led out of the upper abdominal part sutured and a three-way stopcock was connected thereto, to one of which a syringe was connected and to other of which a pressure transducer for measuring the intravesical pressure was connected. The rhythmic bladder contraction was induced by infusion of about 0.1 to 0.3 ml of water into the balloon and, after obtaining the constant amplitude of rhythmic bladder contraction, test compound was administered intraduodenally. The inhibitory effects were estimated by the reduction in amplitude of the bladder contraction.

overactive detrusor = settings: clinically; cited from earlier work

T1 sequence (H0W1Z3 1-590): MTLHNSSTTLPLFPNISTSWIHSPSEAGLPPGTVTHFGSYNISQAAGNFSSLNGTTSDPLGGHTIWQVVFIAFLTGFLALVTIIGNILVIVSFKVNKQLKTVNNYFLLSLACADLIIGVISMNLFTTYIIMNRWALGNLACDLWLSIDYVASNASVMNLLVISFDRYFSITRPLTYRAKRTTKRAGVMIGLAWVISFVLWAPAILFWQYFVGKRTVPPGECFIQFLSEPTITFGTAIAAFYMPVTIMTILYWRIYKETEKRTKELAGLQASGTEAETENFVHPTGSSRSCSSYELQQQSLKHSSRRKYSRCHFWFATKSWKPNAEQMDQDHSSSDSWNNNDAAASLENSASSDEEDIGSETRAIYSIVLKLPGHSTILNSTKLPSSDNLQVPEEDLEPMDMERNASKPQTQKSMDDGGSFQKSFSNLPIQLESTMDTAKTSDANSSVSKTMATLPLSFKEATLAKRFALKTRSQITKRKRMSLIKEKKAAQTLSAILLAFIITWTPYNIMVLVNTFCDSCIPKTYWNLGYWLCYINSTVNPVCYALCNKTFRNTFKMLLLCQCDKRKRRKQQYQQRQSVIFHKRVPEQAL

Row | SMILES | Kb (muscarinic receptor) | bladder selectivity (inhibitory activity on the salivary secretion (ID30)/inhibitory activity on the rhythmic bladder contraction (ED30)) (urinary bladder) | inhibitory activity on bladder compared with oxybutynin hydrochloride [1] | adverse effects (overactive detrusor) | clinical effectiveness (overactive detrusor)
1 | CC(C)(C)NCCNC(C(=O)NC1CCCCC1)c1ccccc1 (stereo not drawn) [Example 1, N-cyclohexyl-α-[[2-(tert-butylamino)ethyl]amino]phenylacetamide] | 0.79 µM | 5 | almost equal to that of oxybutynin hydrochloride | – | –
2 | CCN(CC)C(=O)C(NCCNC(C)(C)C)c1ccccc1 (stereo not drawn) [Example 2, N, N-diethyl-α-[[2-(tert-butylamino)ethyl]amino]phenylacetamide] | 16 µM | 6 | – | – | –
3 | CCN(CC)CCNC(C(=O)NC(C)(C)C)c1ccccc1 (stereo not drawn) [Example 3, N-tert-butyl-α-[[2-(diethylamino)ethyl]amino]phenylacetamide] | 3.2 µM | 4 | – | – | –
4 | CCN(CC)C(=O)C(NCCNC(C)C)c1ccccc1 (stereo not shown) [Example 4] | 2 µM | 4 | – | – | –
5 | CCN(CC)CCNC(C(=O)N(CC)CC)c1ccccc1 (stereo not shown) [Example 6] | 2.5 µM | 3 | almost equal to that of oxybutynin hydrochloride | – | –
6 | CCN(CC)C(=O)C(NCCN(C(C)C)C(C)C)c1ccccc1 (stereo not shown) [Example 7] | 1.3 µM | 4 | almost equal to that of oxybutynin hydrochloride | – | –
7 | CCN(CC)CCN(C)C(C(=O)NC(C)(C)C)c1ccccc1 (stereo not shown) [Example 14] | 5 µM | 4 | – | – | –
8 | CCN(CC)CCNC(C(=O)N(C)CCc1ccc(OC)c(OC)c1)c1ccccc1 (stereo not shown) [Example 41] | 6.3 µM | 5 | – | – | –
9 | CCN(CC)CC#CCOC(=O)C(O)(c1ccccc1)C1CCCCC1 (stereo not shown) [Oxybutynin hydrochloride] | – | – | – | frequently cause the adverse effects such as dry mouth and urinary retention | effective for treatment of syndrome elicited by bladder activity
10 | CC(CC(c1ccccc1)c1ccccc1)NC(C)(C)C (stereo not shown) [Terodiline hydrochloride, reference compound] | 0.1 µM | 1 | – | frequently cause the adverse effects such as dry mouth and urinary retention | effective for treatment of syndrome elicited by bladder activity
